{"source": "patent US12539281B2", "about": "(priority 2021, dated 2026)", "key": {"syngeneic mouse glioma": {"test_system": "syngeneic mouse glioma", "details": "IA ethyl alcohol+Anti-PD-1 antibody vs untreated control and IV Anti-PD-1 antibody", "procedure": "Standard protocols for immunohistochemistry are followed. The primary antibody is rabbit anti-CD8 (ab4055, Abcam). Three independent experimental fields are examined, and images are analyzed and quantitated using ImageJ software of the National Institutes of Health."}, "[1]": {"test_system": "blood-brain barrier (BBB)", "procedure": "Photographs of the rats in the prone and supine positions are taken for observation and further analysis.\nExperimental rats are treated with varying concentrations of IA EA (in room temperature, 300 μl 5%, 3%, and 1% EA infused slowly in 1 minute, respectively) and are applied through the arterial catheter placed into the left internal carotid artery.\nExperimental rats are treated with varying concentrations of IA EA (in room temperature, 300 μl 0.3%, 0.1%, and 0.01% EA infused slowly in 1 minute, respectively). They are applied through the arterial catheter placed into the left internal carotid artery.\nThe rapid visualization of the extravasated EB/albumin conjugate distribution after IA catheter delivery of 3% EA by fluorescence from EB dye by confocal microscopy is performed.\nThe fluorescence from EB dye permits the rapid visualization of extravasated EB/albumin conjugate distribution after IA catheter delivery of 3% EA. An untreated rat group is used as a control. IA 3% EA+2% EB solution treatment is used as the testing group.\nThe photographs of cryostatic brain sections from an untreated rat are stained with DAPI to illustrate the background nuclear staining under confocal imaging, respectively. The photo-/micrographs and magnified confocal images of the brain from the rat treated with IA 3% EA+2% EB solution are obtained for studies and comparison. The micrograph of the whole brain section is scanned by confocal microscopy to obtain the confocal images. The confocal images are further enlarged for observation."}, "[2]": {"test_system": "blood-brain barrier (BBB)", "test": "Intraarterial EA-mediated antibody delivery into normal rat brain via left internal carotid artery catheter (Experiments 15-17)", "assay_type": "in vivo, rats", "procedure": "The experimental rat is treated with IA 3% EA+50 μg goat anti-rat IgG (H+L) ALEXA FLUOR® 647 (ab150167, Cambridge, MA USA) via the left internal carotid artery catheter. The micrograph of the whole brain section is scanned with a fluorescence microscope. Two sections from the right and left hemispheres of the brain are selected respectively and are enlarged with a magnification of 63×. The scale bar used is 50 μm. The images of the left and right hemispheres, and the enlarged sections are studied.\nEA-mediated antibody (goat anti-rat IgG (H+L) ALEXA FLUOR® 647) brain entry via catheter placement through the internal carotid artery (left) are tested. The cryosection photographs and images from the confocal microscope after EA treatment are taken for studies. An EA-untreated group is used as a control group. IA antibody [50 μg goat anti-rat IgG (H+L) ALEXA FLUOR® 647] and IA 3% EA+antibody [50 μg goat anti-rat IgG (H+L) ALEXA FLUOR® 647 are the two comparison groups.\nAn ALEXA FLUOR® 647 anti-human IgG antibody was applied via IA catheter delivery to rule out the nonspecific binding to the experimental rats. 3% EA-mediated antibody brain entry via catheter placement through the internal carotid artery (left) is tested and compared. The cryosection photographs and images from the confocal microscope after EA treatment are taken for studies. An EA-untreated group is used as a control group. IA antibody [50 μg ALEXA FLUOR® 647 anti-human IgG antibody (ab201841); and IA 3% EA+50 μg ALEXA FLUOR® 647 anti-human IgG antibody (ab201841, Cambridge, MA USA) are the two comparison groups."}, "[3]": {"test_system": "blood-brain barrier (BBB)", "details": "300 μl 3% EA via microcatheter in left ICA, IV 2% EB at 30 min intervals, rats", "from_the_text": "Evans blue (EB) dye is used as the non-BBB permeable substance.\nIn this experiment, the microcatheter is placed in the left internal carotid artery (ICA). The left internal carotid artery (ICA) leads to the left hemisphere of the brain. (That is, the selected intracerebral artery is the left internal carotid artery (ICA); and the target area is the left hemisphere of the brain.)"}, "[4]": {"test_system": "blood-brain barrier (BBB)", "test": "Microcatheter 3% EA-mediated delivery of Alexa Fluor 647-labeled anti-human IgG antibody, confocal imaging (Experiment 25)", "assay_type": "in vivo", "details": "300 μL 3% EA via microcatheter then 10% labeled antibody, rats", "quoted_text": "Following the perfusion of 300 μL of 3% EA through the intracerebral artery microcatheter, 10% Alexa Fluor® 647-labeled anti-human IgG antibody [EPR4421] (Ab307521, Abcam, UK) is slowly injected along the catheter (5-10 minutes). Two hours later, the brain tissue is perfused and removed after euthanasia. The pathological tissue sections are stained with DAPI, and confocal imaging is performed to evaluate the distribution of Alexa Fluor® 647-labeled anti-human IgG antibody in the rat brain. The experimental rats are injected with 300 μL of 0.9% NaCl without any concentration of EA as a negative control.\nThe blue color comes from the nuclei stained with DAPI. The pink color comes from the rabbit anti-human IgG antibody labeled with Alexa Fluor 647."}, "[5]": {"test_system": "intracranial HER2-positive 4T1 breast cancer", "details": "IA ethyl alcohol with IV Trastuzumab vs IV Trastuzumab, mice with intracranial HER2-positive 4T1 tumor"}, "tight junction proteins": {"test_system": "tight junction proteins", "details": "immediately after IA EA is administered", "source_text": "The membrane and cytosolic proteins are extracted with a MEM-PER™ Plus Membrane Protein Extraction Kit (ThermoFisher Scientific, Waltham, MA USA). Proteins are separated by SDS-PAGE and transferred to nitrocellulose membranes. Primary antibodies used are rabbit anti-claudin-3 (ab15102), rabbit anti-claudin-5 (ab15106), rabbit anti-claudin-6 (ab99226), rabbit anti-JAM (ab125886), rabbit anti-occludin (ab222691, 1:200, Abcam, Cambridge, MA USA), and mouse anti-β-actin (66009, 1:1000, Proteintech, Rosemont, IL USA). Secondary antibodies used are HRP-conjugated goat anti-mouse (SA00001, 1:2500, Proteintech) and goat anti-rabbit (7074, 1:2500, Cell Signaling Technology).\nWestern Blot examined and quantified the tight junction proteins in brain tissues."}, "[6]": {"test_system": "blood-brain barrier (BBB)", "details": "intracardiac EA 3%, 1%, 0.3%, 0.1%, and 0.01% in 2% EB, rats", "source_text": "Set up the ultrasound imaging system before anesthetizing the rats; to anesthetize the rats in an induction chamber using 3-4% isoflurane in 100% oxygen at a rate of 0.2-0.5 L/min; to confirm proper anesthetization before performing imaging by pinching the toe, rolling the rats. • 2. Remove the fur over the thorax area using hair removal cream. • 3. Place the experimental animal on the imaging table in the supine position and secure both the upper and lower limbs with adhesive tape to avoid body movement during the procedure. • 4. Clean up the skin of the thorax area using a 10% povidone/iodine swab followed by a 70% ethanol swab. Apply a thick layer of gel to the thorax area of the animal. • 5. Mount the transducer and adjust the position until the left ventricle is clearly visible. • 6. […] To visualize pulsating blood, keep a small air column in the syringe; advance the syringe towards the animal thorax, adjust the needle trajectory using the ultrasound guidance, and enter the left ventricle, and to complete the IC injection within 30 seconds. • 7. Withdraw the needle, release that rat, and monitor until complete recovery from anesthesia\nThe rats are treated with varying concentrations of EA via intracardiac injection. […] Sham control (without treatment as negative control) is included in this experiment."}, "[7]": {"test": "Comparison of the toxicity of IA NEO100 and IA EA (Experiment 21)", "quoted_text": "The safety profile of IA 0.3% NEO100 vs. IA 0.3% EA are compared. […] There are 15 experimental mice in each testing group. The potential adverse effects are evaluated."}, "[8]": {"details": "IA injection 0.3%, 15 mice per group, number of mice"}}, "data": [{"smiles": "CCO", "note": "[ethyl alcohol]", "values": [{"measurement": "replenishment of CD8+ T lymphocytes inside the tumor", "setting": "syngeneic mouse glioma", "result": "significantly enhance the replenishment of CD8+ T lymphocytes"}, {"measurement": "extravasated EB at the lowest concentration of EA", "setting": "[1]; 300 μl 0.01% EA in 1 minute via left ICA catheter, rats", "result": "can still be visualized in the left hemisphere of the brain tissue"}, {"measurement": "extravasated EB in coronal sections", "setting": "[1]; 300 μl 5%, 3%, and 1% EA in 1 minute via left ICA catheter, 2 hours after, rats", "result": "spreading out homogeneously through almost the whole section of the left hemisphere of the brain"}, {"measurement": "autofluorescence from EB/albumin by confocal microscopy", "setting": "[1]; IA 3% EA+2% EB, whole brain section, left hemisphere, rat", "result": "massive spreading of autofluorescence"}, {"measurement": "location of extravasated EB", "setting": "[1]; left-side IA catheter, EA+2% EB, Fisher 344 rats", "result": "inside the left vitreous humor, but not inside the right"}, {"measurement": "antibody staining (pink color) in brain, confocal", "setting": "[2]; IA 3% EA+50 μg ALEXA FLUOR 647 anti-human IgG antibody, rats", "result": "even and widely spread pink color"}, {"measurement": "antibody staining (pink color) in brain, confocal", "setting": "[2]; IA 3% EA+50 μg goat anti-rat IgG (H+L) ALEXA FLUOR 647, rats", "result": "even and widely spread pink color"}, {"measurement": "fluorescence of labeled antibody, left hemisphere vs right hemisphere", "setting": "[2]; IA 3% EA+50 μg goat anti-rat IgG (H+L) ALEXA FLUOR 647 via left ICA catheter, rat", "result": "more dense fluorescence than the right hemisphere"}, {"measurement": "time until disrupted BBB is restored", "setting": "[3]", "result": "around 2 hours"}, {"measurement": "penetration and spread of Alexa Fluor 647-labeled anti-human IgG antibodies in the brain", "setting": "[4]", "result": "significantly improve the penetration and spread"}, {"measurement": "Trastuzumab brain tumor entry (integrated optical density, confocal imaging)", "setting": "[5]", "result": "significantly enhance"}, {"measurement": "time for which tight junction proteins in the BBB are reduced", "setting": "tight junction proteins", "result": "about 120 minutes"}, {"measurement": "tinted blue color (extravasated Evans blue) in brain", "setting": "[6]", "result": "observed in all treatment groups"}, {"measurement": "tested animals that experienced adverse effects", "setting": "[7]; IA injection 0.3%, 15 mice per group", "result": "less than 50%"}, {"measurement": "Immediate Sudden Death", "setting": "[7]; [8]", "result": 0}, {"measurement": "Intermediate-lasting epilepsy post-injection leading to death", "setting": "[7]; [8]", "result": 0}, {"measurement": "Long-lasting epilepsy post-injection leading death", "setting": "[7]; [8]", "result": 0}, {"measurement": "Moderate-lasting epilepsy post-injection and survival to fully recovery", "setting": "[7]; [8]", "result": 3}, {"measurement": "Transient, mild, or occasional epilepsy post-injection and survival to fully recovery", "setting": "[7]; [8]", "result": 3}, {"measurement": "Mortality", "setting": "[7]; IA injection 0.3%, 15 mice per group, listed as EA", "result": 0, "unit": "%"}, {"measurement": "overall mortality rate", "setting": "[7]; repeated comparative experiments of IA EA and IA NEO100", "result": "less than or equal to 1%"}]}]}
